The source made the active and inactive calls.
Assays:
Cytochrome P450 2C9 = Cytochrome P450 2C9 (Homo sapiens, UniProt P11712)
Cytochrome P450 2C19 = Cytochrome P450 2C19 (Homo sapiens, UniProt P33261); assay: Cytochrome panel assay with activity outcomes. Panel member name: p450-cyp2c19 Compounds with AC50 equal or less than 10 uM are considered active; assay type: functional; details: read-out: AC50
Cytochrome P450 1A2 = target: T1, Cytochrome P450 1A2 (Homo sapiens, UniProt P05177);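 also: PubChem cytochrome P450 panel assay, CYP1A2 panel member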
T1 sequence (P05177 whole entry): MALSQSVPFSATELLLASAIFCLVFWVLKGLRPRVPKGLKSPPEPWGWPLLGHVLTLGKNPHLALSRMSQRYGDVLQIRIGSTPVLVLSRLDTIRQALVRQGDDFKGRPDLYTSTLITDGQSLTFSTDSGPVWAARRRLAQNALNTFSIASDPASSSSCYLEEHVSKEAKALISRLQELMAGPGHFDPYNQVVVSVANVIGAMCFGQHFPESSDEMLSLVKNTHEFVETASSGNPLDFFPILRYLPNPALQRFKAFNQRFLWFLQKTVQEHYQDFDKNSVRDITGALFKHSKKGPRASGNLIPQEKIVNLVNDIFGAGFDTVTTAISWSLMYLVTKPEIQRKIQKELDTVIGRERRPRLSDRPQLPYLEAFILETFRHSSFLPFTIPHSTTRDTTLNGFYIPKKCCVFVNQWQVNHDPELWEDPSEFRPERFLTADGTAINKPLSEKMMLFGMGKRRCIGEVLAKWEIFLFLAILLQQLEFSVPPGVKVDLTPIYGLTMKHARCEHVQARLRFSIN

Cytochrome P450 3A4 = Cytochrome P450 3A4 (Homo sapiens, UniProt P08684);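 also: CYP3A4 tested as one member of a cytochrome P450 panel screen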
[1] = target: T2, Heat shock factor protein 1 (Mus musculus, UniProt P38532); assay: enhancement of HSF1-driven luciferase signal – cell-based, NIH3T3, luminescence, dose retest, confirmation (AID 435004); assay type: functional;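 also: stress induced by proteasome inhibitor MG132 added 30 min after compound; luciferase reporter driven by HSF1 response element in NIH3T3 cells; actives raise luminescence as potentiators of the MG132 stress response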
T2 sequence (P38532 whole entry): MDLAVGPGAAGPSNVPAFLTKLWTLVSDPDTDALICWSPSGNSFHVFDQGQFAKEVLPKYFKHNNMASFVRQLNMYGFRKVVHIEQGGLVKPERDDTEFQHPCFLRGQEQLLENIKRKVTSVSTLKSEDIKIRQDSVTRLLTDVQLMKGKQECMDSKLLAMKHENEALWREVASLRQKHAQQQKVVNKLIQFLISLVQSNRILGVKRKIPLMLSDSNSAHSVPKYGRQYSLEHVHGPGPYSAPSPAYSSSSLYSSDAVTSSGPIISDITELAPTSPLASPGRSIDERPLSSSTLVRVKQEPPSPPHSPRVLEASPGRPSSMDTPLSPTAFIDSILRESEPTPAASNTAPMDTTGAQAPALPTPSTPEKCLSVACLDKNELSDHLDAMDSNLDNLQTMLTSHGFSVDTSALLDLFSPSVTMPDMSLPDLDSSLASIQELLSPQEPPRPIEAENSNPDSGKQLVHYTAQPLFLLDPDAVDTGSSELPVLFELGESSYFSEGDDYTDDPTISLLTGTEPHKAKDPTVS

Streptococcus = assay: GAS UMAA2166 growth inhibition – luminescence, BacTiterGlo, counter-screen for streptokinase expression inhibitor project, dose response (AID 1915); assay type: functional, organism-based;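 also: potency for reduction of bacterial viability or growth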
Streptokinase A = target: T3, Streptokinase A (Streptococcus pyogenes serotype M1, UniProt P10520); assay: viability-normalized secreted streptokinase activity reduction – plasminogen activation absorbance, OD405, dose response (AID 1914); assay type: functional, Streptococcus pyogenes M1 GAS;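 also: secreted streptokinase activity via plasminogen activation per viability signal from cell pellet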
T3 sequence (P10520 whole entry): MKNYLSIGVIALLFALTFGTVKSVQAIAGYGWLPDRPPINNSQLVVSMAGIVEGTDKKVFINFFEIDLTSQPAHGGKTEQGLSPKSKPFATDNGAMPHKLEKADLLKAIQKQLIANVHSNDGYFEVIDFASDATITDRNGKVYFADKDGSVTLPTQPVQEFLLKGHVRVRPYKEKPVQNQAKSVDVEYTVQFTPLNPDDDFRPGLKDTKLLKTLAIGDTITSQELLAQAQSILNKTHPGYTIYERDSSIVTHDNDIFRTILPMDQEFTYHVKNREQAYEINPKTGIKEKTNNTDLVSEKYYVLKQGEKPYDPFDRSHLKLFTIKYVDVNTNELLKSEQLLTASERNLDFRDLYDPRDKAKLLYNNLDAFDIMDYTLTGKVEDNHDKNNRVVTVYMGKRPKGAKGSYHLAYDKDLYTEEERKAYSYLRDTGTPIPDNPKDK

[2] = target: T4, RNA-binding protein pos-1 (Caenorhabditis elegans, UniProt G5EF15); assay: disruptors of C. elegans POS-1 RNA interaction – biochemical, fluorescence polarization, dose response (AID 1964);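 also: purified POS-1 fused to maltose binding protein made in E. coli; potency of compounds blocking POS-1 binding to fluorescent RNA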
T4 sequence (G5EF15 whole entry): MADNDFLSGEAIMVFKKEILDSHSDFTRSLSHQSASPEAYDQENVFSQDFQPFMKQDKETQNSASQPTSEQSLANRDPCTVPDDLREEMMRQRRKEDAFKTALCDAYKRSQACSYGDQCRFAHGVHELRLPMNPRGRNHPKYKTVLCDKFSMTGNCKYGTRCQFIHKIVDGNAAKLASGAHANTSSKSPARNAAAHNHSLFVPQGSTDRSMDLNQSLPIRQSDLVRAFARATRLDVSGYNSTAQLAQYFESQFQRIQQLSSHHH

[3] = target: T5, Zinc finger protein mex-5 (Caenorhabditis elegans, UniProt Q9XUB2); assay: potency of MEX-5 RNA-binding blockers – biochemical, C. elegans, fluorescence polarization, dose response (AID 1960)
T5 sequence (Q9XUB2 whole entry): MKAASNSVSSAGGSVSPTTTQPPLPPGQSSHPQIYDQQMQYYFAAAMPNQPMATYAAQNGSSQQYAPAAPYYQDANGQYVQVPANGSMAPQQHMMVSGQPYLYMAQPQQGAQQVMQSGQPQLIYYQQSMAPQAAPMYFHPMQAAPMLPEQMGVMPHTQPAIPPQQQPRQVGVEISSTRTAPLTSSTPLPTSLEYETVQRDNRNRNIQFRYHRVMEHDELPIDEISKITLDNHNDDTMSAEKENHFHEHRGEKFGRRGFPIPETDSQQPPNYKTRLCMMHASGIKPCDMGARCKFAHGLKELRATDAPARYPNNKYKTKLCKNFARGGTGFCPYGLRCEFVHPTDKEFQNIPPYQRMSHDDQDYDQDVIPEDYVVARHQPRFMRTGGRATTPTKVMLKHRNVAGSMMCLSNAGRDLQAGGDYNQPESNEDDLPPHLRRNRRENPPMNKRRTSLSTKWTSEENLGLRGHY

[4] = test system: Streptococcus sp. 'group A'; assay: Streptococcus pyogenes SK(-)GAS viability under kanamycin – luminescence, BacTiterGlo, confirmation, counter-screen for streptokinase expression inhibitor project, dose response (AID 1900); assay type: functional, organism-based

Cytochrome P450 3A4, sequence (P08684 whole entry): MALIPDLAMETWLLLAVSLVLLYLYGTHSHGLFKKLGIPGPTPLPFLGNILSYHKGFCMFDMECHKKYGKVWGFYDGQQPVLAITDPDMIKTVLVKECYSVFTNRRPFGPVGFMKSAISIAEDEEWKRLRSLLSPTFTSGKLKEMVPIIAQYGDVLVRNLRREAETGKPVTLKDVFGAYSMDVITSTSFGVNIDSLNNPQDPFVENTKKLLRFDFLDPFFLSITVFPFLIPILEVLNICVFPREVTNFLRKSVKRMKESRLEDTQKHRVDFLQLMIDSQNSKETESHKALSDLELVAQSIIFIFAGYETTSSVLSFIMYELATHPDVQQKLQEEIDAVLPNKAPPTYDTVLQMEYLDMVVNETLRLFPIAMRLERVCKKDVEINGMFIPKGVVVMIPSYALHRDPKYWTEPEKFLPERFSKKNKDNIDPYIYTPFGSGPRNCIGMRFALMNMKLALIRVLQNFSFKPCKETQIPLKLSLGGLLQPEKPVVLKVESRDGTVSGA
Cytochrome P450 2C9, sequence (P11712 whole entry): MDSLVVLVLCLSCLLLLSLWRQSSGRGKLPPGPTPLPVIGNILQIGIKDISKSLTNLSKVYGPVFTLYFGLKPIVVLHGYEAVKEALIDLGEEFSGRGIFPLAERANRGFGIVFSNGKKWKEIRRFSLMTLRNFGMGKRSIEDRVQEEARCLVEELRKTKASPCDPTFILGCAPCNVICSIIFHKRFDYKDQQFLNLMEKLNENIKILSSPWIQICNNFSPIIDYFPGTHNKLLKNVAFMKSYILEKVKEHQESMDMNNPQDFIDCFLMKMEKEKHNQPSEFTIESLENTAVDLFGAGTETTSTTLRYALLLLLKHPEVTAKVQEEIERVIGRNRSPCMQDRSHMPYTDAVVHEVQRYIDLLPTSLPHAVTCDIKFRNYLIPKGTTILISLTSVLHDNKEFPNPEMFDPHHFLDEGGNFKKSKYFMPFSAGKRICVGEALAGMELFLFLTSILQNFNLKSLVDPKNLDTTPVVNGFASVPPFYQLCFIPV
Cytochrome P450 2C19, sequence (P33261 whole entry): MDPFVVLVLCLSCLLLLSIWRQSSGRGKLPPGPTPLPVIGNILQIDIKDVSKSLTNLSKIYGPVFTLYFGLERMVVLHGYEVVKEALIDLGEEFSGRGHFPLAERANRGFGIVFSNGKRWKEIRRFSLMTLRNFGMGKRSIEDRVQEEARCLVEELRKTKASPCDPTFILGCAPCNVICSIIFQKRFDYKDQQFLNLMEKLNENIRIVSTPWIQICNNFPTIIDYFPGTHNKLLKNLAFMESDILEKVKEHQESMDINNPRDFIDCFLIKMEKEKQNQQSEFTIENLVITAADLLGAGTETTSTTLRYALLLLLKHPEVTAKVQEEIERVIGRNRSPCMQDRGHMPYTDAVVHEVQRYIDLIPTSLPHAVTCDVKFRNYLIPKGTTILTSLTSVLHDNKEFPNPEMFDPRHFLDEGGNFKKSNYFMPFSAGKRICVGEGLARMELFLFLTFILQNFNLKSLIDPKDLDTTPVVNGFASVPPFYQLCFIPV

Cc1nn(C)cc1C(=O)NN=C(S)Nc1ccccc1
AC50 (Cytochrome P450 2C9): 39.8 µM (inconclusive)
AC50 (Cytochrome P450 2C19): 22.4 µM (inconclusive)
AC50 (Cytochrome P450 1A2): 15.8 µM (inconclusive)

O=c1c(-c2ccc(F)c(F)c2)nc2cncnc2n1C1CC1
AC50 (Cytochrome P450 3A4): 12.6 µM (inconclusive)

Cc1ccc(C(c2nnnn2CC2CCCO2)N2CCN(C(=O)c3ccco3)CC2)cc1 (stereo not given)
AC50 (Cytochrome P450 2C9): 25.1 µM (inconclusive)

COc1ccc(NS(=O)(=O)c2ccc(NC(=O)c3cnn4c(C(F)F)cc(-c5ccc(C)cc5)nc34)cc2)cc1
AC50 (Cytochrome P450 2C9): 3.55 µM (inconclusive)
AC50 (Cytochrome P450 2C19): 2.24 µM (inconclusive)
AC50 (Cytochrome P450 1A2): 0.891 µM (inconclusive)

COC(=O)c1cc2c(ccn2-c2ccc(F)cc2)n1Cc1ccc(C#N)cc1
EC50 [1]: > 260 µM (inactive)

Cc1cc(C)c(S(=O)(=O)N2CCCC(C(=O)NCCC3=CCCCC3)C2)c(C)c1 (stereo not given)
EC50 [1]: > 260 µM (inactive)

CC(C)N1CCc2c(sc(NC(=O)c3ccc(S(=O)(=O)N(C)CC4CCCO4)cc3)c2C(N)=O)C1 (stereo not given)
EC50 (Streptococcus): > 150 µM (not active)
EC50 (Streptokinase A): > 150 µM (not active)
EC50 [2]: 203 µM (active)
EC50 [3]: > 300 µM (not active)
EC50 [4]: > 150 µM (not active)

O=C(c1cc(C(F)(F)F)cc(C(F)(F)F)c1)N1CCC2(CC1)CN(Cc1ccncc1)C2
AC50 (Cytochrome P450 3A4): 15.8 µM (inconclusive)
AC50 (Cytochrome P450 1A2): 20 µM (inconclusive)

CC(=C\c1ccco1)/C=C1/SC(=S)N(CC(=O)O)C1=O
EC50 [2]: > 300 µM (not active)
EC50 [3]: > 300 µM (not active)

COc1cccc(-c2cc(C(F)(F)F)nc(N3CCCCC3)n2)c1
AC50 (Cytochrome P450 2C9): 0.355 µM (inconclusive)
EC50 (Streptococcus): 19 µM (active)
EC50 (Streptokinase A): 4.92 µM (active)
AC50 (Cytochrome P450 3A4): 20 µM (inconclusive)
EC50 [4]: 5.13 µM (active)

COc1ccc(C2Nc3ccccc3C(=O)N2Cc2ccco2)cc1COc1ccc(F)cc1 (stereo not given)
EC50 [1]: > 260 µM (inactive)

Cn1cc(-c2nc3cnc(N4CCNCC4)nc3n(-c3ccccc3)c2=O)c2ccccc21
AC50 (Cytochrome P450 3A4): 20 µM (inconclusive)

COc1ccc(N2CCN(Cc3nc4c(c(=O)n(C)c(=O)n4C)n3CC(C)=O)CC2)cc1
AC50 (Cytochrome P450 2C9): 28.2 µM (inconclusive)

COc1ccc(Nc2nnc(-c3ccc(N4CCOCC4)c([N+](=O)[O-])c3)c3ccccc23)cc1
AC50 (Cytochrome P450 2C19): 15.8 µM (inconclusive)
AC50 (Cytochrome P450 3A4): 7.94 µM (inconclusive)

N#CCc1c(C#N)c(N)nc(N2CCN(S(=O)(=O)c3ccccc3F)CC2)c1C#N
EC50 [1]: > 260 µM (inactive)

Cc1c(Nc2cc(N3CCCC(C)C3)c3nonc3c2[N+](=O)[O-])c(=O)n(-c2ccccc2)n1C (stereo not given)
AC50 (Cytochrome P450 2C9): 2.51 µM (inconclusive)

c1ccc(Nc2c(-c3ccco3)nc3ccccn23)cc1
EC50 [1]: 151 µM (active)

C[C@H]1O[C@@H](CC(=O)O)Cc2c(O)c3c(c(O)c21)C(=O)C=C(C1=CC(=O)c2c(O)c4c(c(O)c2C1=O)C[C@H](CC(=O)O)O[C@@H]4C)C3=O
AC50 (Cytochrome P450 2C9): 7.94 µM (inconclusive)

O=C(O)CN1C(=O)/C(=C/c2ccccc2Br)Oc2ccccc21
EC50 [1]: > 260 µM (inactive)

COc1ccc(CCN2C(=O)NC(=O)/C(=C\Nc3ccc(NC(C)=O)cc3)C2=O)cc1OC
EC50 [2]: > 300 µM (not active)
EC50 [3]: > 300 µM (not active)

C[C@H]1COC(=O)[C@H](Cc2ccccc2)NC(=O)[C@@H](C)COC(=O)[C@H](Cc2ccccc2)NC1=O
AC50 (Cytochrome P450 3A4): 3.98 µM (inconclusive)

COc1ccc(S(=O)(=O)Nc2ccccc2C(F)(F)F)cc1
EC50 [1]: > 260 µM (inactive)

COC(=O)C1=C(C)N(c2ccc(Cl)cc2)/C(=C/c2cccs2)C1=O
EC50 [2]: > 300 µM (not active)
EC50 [3]: > 300 µM (not active)

COCCn1c(=O)c(-c2cc(F)cc(F)c2)nc2cnc(OC)nc21
AC50 (Cytochrome P450 2C9): 39.8 µM (inconclusive)
AC50 (Cytochrome P450 2C19): 39.8 µM (inconclusive)

CCOC(=O)C1CCN(C(=O)c2ccc3c(Cl)c4c(nc3c2)CCCC4)CC1
EC50 [1]: 15.8 µM (active)

O=C(Nc1cccn2ncnc12)C(F)(F)F
EC50 [1]: > 260 µM (inactive)

CN1CC[C@@]2(CCCN(C(=O)c3ccncc3)C2)C1
AC50 (Cytochrome P450 3A4): 31.6 µM (inconclusive)

CC1(C)Oc2cc(N)c([N+](=O)[O-])cc2O1
AC50 (Cytochrome P450 2C9): 35.5 µM (inconclusive)

Cc1ccccc1N(C(=O)Cc1cccs1)C(C(=O)NCC1CCCO1)c1cccnc1 (stereo not given)
AC50 (Cytochrome P450 2C9): 22.4 µM (inconclusive)
AC50 (Cytochrome P450 2C19): 28.2 µM (inconclusive)
AC50 (Cytochrome P450 3A4): 1 µM (inconclusive)

CCCCN1C(=O)NC(=O)/C(=C\NCCN2CCCCC2)C1=O
AC50 (Cytochrome P450 3A4): 20 µM (inconclusive)

Cc1nn(-c2ccccc2)c2sc(C(=O)N(Cc3ccco3)C(C)C(=O)NC(C)(C)C)cc12 (stereo not given)
EC50 [1]: > 260 µM (inactive)

COc1ccc2c(c1)c(C(=O)CN1CCCCC1)c(C)n2C
EC50 [1]: > 260 µM (inactive)

Cc1nc2ncnn2c(C)c1CCC(=O)NCc1ccccc1
AC50 (Cytochrome P450 3A4): 17.8 µM (inconclusive)

CN(C)c1ccc(CNC(=O)c2ccc(CNc3c(N4CCCCC4)c(=O)c3=O)cc2)cc1
EC50 [1]: > 260 µM (inactive)

O=C(c1[nH]o[n+](=O)c1C(=O)c1csc2ccccc12)c1csc2ccccc12
AC50 (Cytochrome P450 3A4): 3.16 µM (inconclusive)

O=C(O)c1cc2cc(Cc3cccnc3)ccc2o1
AC50 (Cytochrome P450 3A4): 25.1 µM (inconclusive)

Oc1ccc([C@@H]2CNCc3sccc32)cc1O
AC50 (Cytochrome P450 3A4): 15.8 µM (inconclusive)

NC(=O)CI [IODOACETAMIDE]
AC50 (Cytochrome P450 2C9): 39.8 µM (inconclusive)
AC50 (Cytochrome P450 2C19): 39.8 µM (inconclusive)
AC50 (Cytochrome P450 1A2): 31.6 µM (inconclusive)

Source: ChEMBL document CHEMBL1201862, “PubChem BioAssay data set” (2004)
